Test results from patent US20150148377A1, “Quinoline Derivatives” (NOVARTIS AG, priority 2011, published 2015).

Experiments:
PI3K alpha = biological target: T1, PI3K alpha (Homo sapiens, UniProt P42336); assay: Enzymatic PI3K alpha isoform inhibition (lipid kinase activity, Kinase-Glo); type: biochemical; conditions: enzymatic assay
T1 construct: His tag (C); made in house; host or cells: baculovirus; Tn5 (Trichoplusia ni) or TiniPro insect cells
Method: The kinase reaction is performed in a final volume of 50 μl per well of a half area COSTAR, 96 well plate. The final concentrations of ATP and phosphatidyl inositol in the assay are 5 μM and 6 μg/mL, respectively. The reaction is started by the addition of PI3 kinase, e.g. PI3 kinase δ.
(§1) In a more preferred assay, the kinase reaction is performed in a final volume of 10 μl per well of a low volume non-binding CORNING, 384 well black plate (Cat. No. #3676). The final concentrations of ATP and phosphatidyl inositol (PI) in the assay are 1 μM and 10 μg/mL, respectively. The reaction is started by the addition of ATP.
(§2) The components of the assay are added per well as follows:
(§3) 50 nl test compounds in 90% DMSO per well, in columns 1-20, 8 concentrations (1/3 and 1/3.33 serial dilution step) in single. • Low control: 50 nl of 90% DMSO in half the wells of columns 23-24 (0.45% in final). • High control: 50 nl of reference compound (e.g. compound of Example 7 in WO 2006/122806) in the other half of columns 23-24 (2.5 μM in final). • Standard: 50 nl of reference compound as just mentioned diluted as the test compounds in columns 21-22. • 20 mL ‘buffer’ are prepared per assay: • 200 μl of 1M TRIS HCl pH7.5 (10 mM in final) • 60 μl of 1M MgCl2 (3 mM in final) • 500 μl of 2M NaCl (50 mM in final) • 100 μl of 10% CHAPS (0.05% in final) • 200 μl of 100 mM DTT (1 mM in final) • 18.94 mL of nanopure water • 10 mL ‘PI’ are prepared per assay: • 200 μl of 1 mg/mL 1-alpha-Phosphatidylinositol (Liver Bovine, Avanti Polar Lipids Cat. No. 840042C MW=909.12) prepared in 3% OctylGlucoside (10 μg/mL in final) • 9.8 mL of ‘buffer’ • 10 mL ‘ATP’ are prepared per assay: • 6.7 μl of 3 mM stock of ATP giving a final concentration of 1 μM per well • 10 mL of ‘buffer’ • 2.5 mL of each PI3K construct are prepared per assay in ‘PI’ with the following final concentration: • 10 nM PI3K alfa EMV B1075 • 25 nM beta EMV BV949 • 10 nM delta EMV BV1060 • 150 nM gamma EMV BV950 • 5 μl of ‘PI/PI3K’ are added per well. • 5 μl ‘ATP’ are added per well to start the reaction. • The plates are then incubated at room temperature for 60 minutes (alfa, beta, delta) or 120 minutes (gamma). • The reaction is terminated by the addition of 10 μl Kinase-Glo (Promega Cat. No. #6714). • The assay plates are read after 10 minutes in Synergy 2 reader (BioTek, Vermont USA) with an integration time of 100 milliseconds and sensitivity set to 191. • Output: The High control is around 60'000 counts and the Low control is 30'000 or lower • This luminescence assay gives a useful Z′ ratio between 0.4 and 0.7
(§4) IC50 is determined by a four parameter curve fitting routine that comes along with “excel fit”. A four parameter logistic equation is used to calculate IC50 values (IDBS XLfit) of the percentage inhibition of each compound at 8 concentrations (usually 10, 3.0, 1.0, 0.3, 0.1, 0.030, 0.010 and 0.003 μM). Alternatively, IC50 values are calculated using idbsXLfit model 204, which is a 4 parameter logistic model.
(§5) Yet alternatively, for an ATP depletion assay, compounds of the formula I to be tested are dissolved in DMSO and directly distributed into a white 384-well plate at 0.5 μl per well. To start the reaction, 10 μl of 10 nM PI3 kinase and 5 μg/mL 1-alpha-phosphatidylinositol (PI) are added into each well followed by 10 μl of 2 μM ATP. The reaction is performed until approx 50% of the ATP is depleted, and then stopped by the addition of 20 μl of Kinase-Glo solution (Promega Corp., Madison, Wis., USA). The stopped reaction is incubated for 5 minutes and the remaining ATP is then detected via luminescence. IC50 values are then determined.

PI3K delta = biological target: T2, PI3K delta (Homo sapiens, UniProt O00329); assay: Enzymatic PI3K delta isoform inhibition (lipid kinase activity, Kinase-Glo); type: biochemical; conditions: enzymatic assay
T2 construct: for the full-length p110-d subunit are generated and fused by overlapping PCR; His tag (C); made in house; host or cells: baculovirus; Tn5 (Trichoplusia ni) or TiniPro insect cells
T2 sequence (O00329 with tags, fused parts or gaps limits assumed): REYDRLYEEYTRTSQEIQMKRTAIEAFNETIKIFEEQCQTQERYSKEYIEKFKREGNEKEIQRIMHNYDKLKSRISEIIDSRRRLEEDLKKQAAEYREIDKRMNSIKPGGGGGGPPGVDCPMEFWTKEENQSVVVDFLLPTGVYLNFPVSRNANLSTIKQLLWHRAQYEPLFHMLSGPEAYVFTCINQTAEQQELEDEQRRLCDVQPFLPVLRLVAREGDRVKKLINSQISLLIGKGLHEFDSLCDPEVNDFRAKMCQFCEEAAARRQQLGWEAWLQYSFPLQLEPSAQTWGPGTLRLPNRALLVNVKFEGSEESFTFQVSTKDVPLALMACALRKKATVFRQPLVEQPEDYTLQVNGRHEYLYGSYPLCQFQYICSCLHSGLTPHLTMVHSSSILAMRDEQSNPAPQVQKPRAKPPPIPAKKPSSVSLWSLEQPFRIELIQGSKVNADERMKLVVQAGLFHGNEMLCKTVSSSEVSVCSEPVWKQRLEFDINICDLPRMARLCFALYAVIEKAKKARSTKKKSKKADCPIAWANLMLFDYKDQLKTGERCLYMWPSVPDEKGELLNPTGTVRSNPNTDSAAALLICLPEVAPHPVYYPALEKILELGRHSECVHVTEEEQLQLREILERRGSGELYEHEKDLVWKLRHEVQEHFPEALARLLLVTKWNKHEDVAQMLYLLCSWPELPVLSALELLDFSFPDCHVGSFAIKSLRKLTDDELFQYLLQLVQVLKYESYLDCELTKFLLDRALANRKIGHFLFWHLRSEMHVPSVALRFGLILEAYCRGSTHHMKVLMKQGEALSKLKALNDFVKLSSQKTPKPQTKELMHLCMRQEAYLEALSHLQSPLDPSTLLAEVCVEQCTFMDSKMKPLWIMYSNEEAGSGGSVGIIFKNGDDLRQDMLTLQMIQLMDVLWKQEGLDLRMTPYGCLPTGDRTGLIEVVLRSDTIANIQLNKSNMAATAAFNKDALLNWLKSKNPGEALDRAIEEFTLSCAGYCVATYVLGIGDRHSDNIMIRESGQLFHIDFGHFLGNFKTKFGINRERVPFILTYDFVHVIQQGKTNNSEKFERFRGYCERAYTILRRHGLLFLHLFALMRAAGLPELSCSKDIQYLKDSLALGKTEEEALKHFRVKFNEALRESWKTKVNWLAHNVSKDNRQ
Method: as §1, §2, §3, §4, §5

T1 sequence (P42336 with tags, fused parts or gaps limits assumed): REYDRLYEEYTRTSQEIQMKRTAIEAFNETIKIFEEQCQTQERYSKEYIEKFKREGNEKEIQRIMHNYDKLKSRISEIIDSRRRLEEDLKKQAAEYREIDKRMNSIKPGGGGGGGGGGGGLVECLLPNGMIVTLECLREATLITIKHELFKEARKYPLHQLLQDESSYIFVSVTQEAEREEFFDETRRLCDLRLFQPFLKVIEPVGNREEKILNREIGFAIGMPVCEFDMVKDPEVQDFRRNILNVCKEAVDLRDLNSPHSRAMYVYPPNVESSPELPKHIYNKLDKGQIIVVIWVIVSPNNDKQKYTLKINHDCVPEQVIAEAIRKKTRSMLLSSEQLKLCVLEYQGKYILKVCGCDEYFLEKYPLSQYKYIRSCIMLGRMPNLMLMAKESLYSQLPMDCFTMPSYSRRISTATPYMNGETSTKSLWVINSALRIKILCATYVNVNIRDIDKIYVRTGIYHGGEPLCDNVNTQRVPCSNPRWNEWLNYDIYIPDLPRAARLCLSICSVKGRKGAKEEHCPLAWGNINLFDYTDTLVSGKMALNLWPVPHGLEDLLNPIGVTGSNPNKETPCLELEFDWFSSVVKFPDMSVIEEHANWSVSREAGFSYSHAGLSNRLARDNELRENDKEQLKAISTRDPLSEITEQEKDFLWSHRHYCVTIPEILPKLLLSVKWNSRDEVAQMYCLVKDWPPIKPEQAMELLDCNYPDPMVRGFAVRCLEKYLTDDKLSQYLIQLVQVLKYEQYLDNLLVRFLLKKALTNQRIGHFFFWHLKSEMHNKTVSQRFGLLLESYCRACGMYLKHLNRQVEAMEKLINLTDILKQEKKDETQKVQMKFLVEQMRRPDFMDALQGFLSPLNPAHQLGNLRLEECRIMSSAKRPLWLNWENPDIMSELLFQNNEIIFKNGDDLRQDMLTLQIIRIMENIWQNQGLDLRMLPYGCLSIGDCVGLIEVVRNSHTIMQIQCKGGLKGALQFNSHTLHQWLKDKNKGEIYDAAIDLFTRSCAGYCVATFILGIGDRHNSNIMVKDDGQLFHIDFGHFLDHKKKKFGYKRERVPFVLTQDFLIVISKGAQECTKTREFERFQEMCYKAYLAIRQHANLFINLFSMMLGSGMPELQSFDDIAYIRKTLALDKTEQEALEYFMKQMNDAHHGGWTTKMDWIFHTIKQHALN

IC50 (PI3K alpha) | IC50 (PI3K delta) | Compound
543 nM | 7 nM | CS(=O)(=O)c1ncc(-c2ccnc3ccc(O[C@H]4CCN(C(=O)C5CCOCC5)C4)cc23)cc1CF [Example A20, {(S)-3-[4-(5-Fluoromethyl-6-methanesulfonyl-pyridin-3-yl)-quinolin-6-yloxy]-pyrrolidin-1-yl}-(tetrahydropyran-4-yl)-methanone]
30 nM | 17 nM | Nc1ncc(-c2ccnc3ccc(O[C@H]4CCN(C(=O)C5CCOCC5)C4)cc23)cc1C(F)(F)F [Example A29, {(S)-3-[4-(6-Amino-5-trifluoromethyl-pyridin-3-yl)-quinolin-6-yloxy]-pyrrolidin-1-yl}-(tetrahydro-pyran-4-yl)-methanone]
802 nM | 5 nM | COc1ncc(-c2ccnc3ccc(O[C@H]4CCN(C(=O)C5CCOCC5)C4)cc23)cc1F [Example A13, {(S)-3-[4-(5-Fluoro-6-methoxy-pyridin-3-yl)-quinolin-6-yloxy]-pyrrolidin-1-yl}-(tetrahydro-pyran-4-yl) methanone]
851 nM | 21 nM | COc1ncc(-c2ccnc3ccc(O[C@H]4CCN(C(=O)c5ccc(=O)n(C)c5)C4)cc23)cc1C [Example A32, 5-{(S)-3-[4-(6-Methoxy-5-methyl-pyridin-3-yl)-quinolin-6-yloxy]-pyrrolidine-1-carbonyl}-1-methyl-1H-pyridin-2-one]
172 nM | 4 nM | COc1ncc(-c2ccnc3ccc(O[C@H]4CCN(C(=O)C5CCS(=O)(=O)CC5)C4)cc23)cc1CF [Example A9, (1,1-Dioxo-hexahydro-1lambda*6*-thiopyran-4-yl)-{(S)-3-[4-(5-fluoromethyl-6-methoxy-pyridin-3-yl)-quinolin-6-yloxy]-pyrrolidin-1-yl}-methanone]
177 nM | 5 nM | COc1ncc(-c2ccnc3ccc(O[C@H]4CCN(C(=O)C5CCS(=O)(=O)CC5)C4)c(C)c23)cc1C(F)F [Example B4, {(S)-3-[4-(5-Difluoromethyl-6-methoxy-pyridin-3-yl)-5-methyl-quinolin-6-yloxy]-pyrrolidin-1-yl}-(1,1-dioxo-hexahydro-1lambda*6*-thiopyran-4-yl)-methanone]
257 nM | 5 nM | COc1ncc(-c2ccnc3ccc(O[C@H]4CCN(C(=O)[C@@H]5CCN(C(C)=O)C5)C4)cc23)cc1C(F)(F)F [Example A11, 1-((R)-3-{(S)-3-[4-(6-Methoxy-5-trifluoromethyl-pyridin-3-yl)-quinolin-6-yloxy]-pyrrolidine-1-carbonyl}-pyrrolidin-1-yl)-ethanone]
33 nM | 4 nM | COc1ncc(-c2ccnc3ccc(O[C@H]4CCN(C(=O)c5ccc(=O)[nH]c5)C4)c(C)c23)cc1C(F)F [Example B2, 5-{(S)-3-[4-(5-Difluoromethyl-6-methoxy-pyridin-3-yl)-5-methyl-quinolin-6-yloxy]-pyrrolidine-1-carbonyl}-1H-pyridin-2-one]
2420 nM | 118 nM | CNc1cc(-c2ccnc3ccc(O[C@H]4CCN(C(=O)C5CCOCC5)C4)cc23)cnc1S(C)(=O)=O [Example A40, {(S)-3-[4-(6-Methanesulfonyl-5-methylamino-pyridin-3-yl)-quinolin-6-yloxy]-pyrrolidin-1-yl}-(tetrahydro-pyran-4-yl)-methanone]
189 nM | 71 nM | COc1ncc(-c2ccnc3ccc(O[C@H]4CCN(C(=O)c5cn(C)cn5)C4)cc23)cc1C [Example A39, {(S)-3-[4-(6-Methoxy-5-methyl-pyridin-3-yl)-quinolin-6-yloxy]-pyrrolidin-1-yl}-(1-methyl-1H-imidazol-4-yl)-methanone]
85 nM | 7 nM | COc1ncc(-c2ccnc3ccc(O[C@H]4CCN(C(=O)c5ccc(=O)[nH]c5)C4)cc23)cc1C(F)(F)F [Example A19, 5-{(S)-3-[4-(6-Methoxy-5-trifluoromethyl-pyridin-3-yl)-quinolin-6-yloxy]-pyrrolidine-1-carbonyl}-1H-pyridin-2-one]
1650 nM | 48 nM | Cc1cc(-c2ccnc3ccc(O[C@H]4CCN(C(=O)C5CCS(=O)(=O)CC5)C4)cc23)cnc1OC(F)F [Example A38, {(S)-3-[4-(6-Difluoromethoxy-5-methyl-pyridin-3-yl)-quinolin-6-yloxy]-pyrrolidin-1-yl}-(1,1-dioxo-hexahydro-1lambda*6*-thiopyran-4-yl)-methanone]
543 nM | 14 nM | COc1ncc(-c2ccnc3ccc(O[C@H]4CCN(C(=O)C5CCN(C(C)=O)CC5)C4)cc23)cc1C [Example A27, 1-(4-{(S)-3-[4-(6-Methoxy-5-methyl-pyridin-3-yl)-quinolin-6-yloxy]-pyrrolidine-1-carbonyl}-piperidin-1-yl)-ethanone]
1140 nM | 10 nM | Cc1cc(-c2ccnc3ccc(O[C@H]4CCN(C(=O)C5CCS(=O)(=O)CC5)C4)cc23)cnc1S(C)(=O)=O [Example A23, (1,1-Dioxo-hexahydro-1lambda*6*-thiopyran-4-yl)-{(S)-3-[4-(6-methanesulfonyl-5-methyl-pyridin-3-yl)-quinolin-6-yloxy]-pyrrolidin-1-yl}-methanone]
1440 nM | 60 nM | COc1ncc(-c2ccnc3ccc(O[C@H]4CCN(C(=O)C5CCOCC5)C4)c(C)c23)cc1C#N [Example B8, 2-Methoxy-5-{5-methyl-6-[(S)-1-(tetrahydro-pyran-4-carbonyl)-pyrrolidin-3-yloxy]-quinolin-4-yl}-nicotinonitrile]
381 nM | 19.5 nM | COc1ncc(-c2ccnc3ccc(O[C@H]4CCN(C(=O)c5cn(C)cn5)C4)cc23)cc1C#N [Example A30, 2-Methoxy-5-{6-[(S)-1-(1-methyl-1H-imidazole-4-carbonyl)-pyrrolidin-3-yloxy]-quinolin-4-yl}-nicotinonitrile]
131 nM | 4 nM | COc1ncc(-c2ccnc3ccc(O[C@H]4CCN(C(=O)C5CCS(=O)(=O)CC5)C4)cc23)cc1C(F)(F)F [Example A8, (1,1-Dioxo-hexahydro-1lambda*6*-thiopyran-4-yl)-{(S)-3-[4-(6-methoxy-5-trifluoromethyl-pyridin-3-yl)-quinolin-6-yloxy]-pyrrolidin-1-yl}-methanone]
745 nM | 43 nM | CS(=O)(=O)c1ncc(-c2ccnc3ccc(O[C@H]4CCN(C(=O)C5CCOCC5)C4)cc23)cc1C(F)(F)F [Example A37, {(S)-3-[4-(6-Methanesulfonyl-5-trifluoromethyl-pyridin-3-yl)-quinolin-6-yloxy]-pyrrolidin-1-yl}-(tetrahydro-pyran-4-yl)-methanone]
253 nM | 6 nM | COc1ncc(-c2ccnc3ccc(O[C@H]4CCN(C(=O)C5CCOCC5)C4)cc23)cc1C [Example A14, {(S)-3-[4-(6-Methoxy-5-methyl-pyridin-3-yl)-quinolin-6-yloxy]-pyrrolidin-1-yl}-(tetrahydro-pyran-4-yl)methanone]
